Results taken from patent US20260250290A1 (BRISTOL-MYERS SQUIBB COMPANY, priority 2023, published 2026).

target: T1, full length SGK1 (Homo sapiens, UniProt O00141); assay: SGK1 inhibition Assay A (Caliper LabChip electrophoretic separation of fluorescent peptide substrate and phosphorylated product); type: biochemical; details: Assay A; 20 μM ATP, 40 min incubation; read-out: SGK1 IC50
T1 construct: 125 μM full length SGK1 (Life Technologies Part #PR7358A); purchased Life Technologies PR7358A
T1 sequence (O00141 1-431): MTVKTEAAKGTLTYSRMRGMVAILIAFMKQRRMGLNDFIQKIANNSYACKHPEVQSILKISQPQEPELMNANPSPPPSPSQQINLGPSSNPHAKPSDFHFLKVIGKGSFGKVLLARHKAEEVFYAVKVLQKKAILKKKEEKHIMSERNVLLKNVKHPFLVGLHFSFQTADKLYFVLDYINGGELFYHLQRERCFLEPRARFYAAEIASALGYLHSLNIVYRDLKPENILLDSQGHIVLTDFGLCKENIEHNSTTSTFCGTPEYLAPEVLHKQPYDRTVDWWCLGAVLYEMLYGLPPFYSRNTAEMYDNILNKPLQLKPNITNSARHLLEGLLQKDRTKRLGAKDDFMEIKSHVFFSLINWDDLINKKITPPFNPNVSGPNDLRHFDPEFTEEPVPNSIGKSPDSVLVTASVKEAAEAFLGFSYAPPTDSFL

First: N#Cc1ncc(-c2cc(N3CCC[C@@H](NC(=O)c4ccc(Cl)s4)C3)c3c(N)ncnn23)cc1F [Example 530, (R)-N-(1-(4-amino-7-(6-cyano-5-fluoropyridin-3-yl)pyrrolo[2,1-f][1,2,4]triazin-5-yl)piperidin-3-yl)-5-chlorothiophene-2-carboxamide]
Second: N#Cc1ncc(-c2cc(N3CCC[C@@H](NC(=O)c4ccc(Cl)s4)C3)c3c(N)ncnn23)cc1C(F)(F)F [Example 531, (R)-N-(1-(4-amino-7-(6-cyano-5-(trifluoromethyl)pyridin-3-yl)pyrrolo[2,1-f][1,2,4]triazin-5-yl)piperidin-3-yl)-5-chlorothiophene-2-carboxamide]
The IC50 of the first is 1.6-fold lower: 11 nM for the first, 18 nM for the second.

Compared with `CCn1cc(-c2cc(N3CCC[C@@H](NC(=O)c4ccc(Cl)s4)C3)c3c(N)ncnn23)ccc1=O` [Example 532, (R)-N-(1-(4-amino-7-(1-ethyl-6-oxo-1,6-dihydropyridin-3-yl)pyrrolo[2,1-f][1,2,4]triazin-5-yl)piperidin-3-yl)-5-chlorothiophene-2-carboxamide], `Nc1ncnn2c(-c3ccc(=O)n(C(F)F)c3)cc(N3CCC[C@@H](NC(=O)c4ccc(Cl)s4)C3)c12` [Example 537, (R)-N-(1-(4-amino-7-(1-(difluoromethyl)-6-oxo-1,6-dihydropyridin-3-yl)pyrrolo[2,1-f][1,2,4]triazin-5-yl)piperidin-3-yl)-5-chlorothiophene-2-carboxamide] is 3-fold lower in IC50: 6 nM for the first, 2 nM for the second.

Going from `CC(C)(O)c1ncc(-c2cc(N3CCC[C@@H](NC(=O)c4ccc(Cl)s4)C3)c3c(N)ncnn23)cn1` [Example 533, (R)-N-(1-(4-amino-7-(2-(2-hydroxypropan-2-yl)pyrimidin-5-yl)pyrrolo[2,1-f][1,2,4]triazin-5-yl)piperidin-3-yl)-5-chlorothiophene-2-carboxamide] to `Nc1ncnn2c(-c3cnccn3)cc(N3CCC[C@@H](NC(=O)c4ccc(Cl)s4)C3)c12` [Example 535, (R)-N-(1-(4-amino-7-(pyrazin-2-yl)pyrrolo[2,1-f][1,2,4]triazin-5-yl)piperidin-3-yl)-5-chlorothiophene-2-carboxamide], the IC50 falls from 728 nM to 58 nM (13-fold). The second is the more potent here.

First: Nc1ncnn2c(-c3ccc(OCC(F)F)nc3)cc(N3CCC[C@@H](NC(=O)c4ccc(Cl)s4)C3)c12 [Example 534, (R)-N-(1-(4-amino-7-(6-(2,2-difluoroethoxy)pyridin-3-yl)pyrrolo[2,1-f][1,2,4]triazin-5-yl)piperidin-3-yl)-5-chlorothiophene-2-carboxamide]
Second: Nc1ncnn2c(-c3ccc(OC(F)F)nc3)cc(N3CCC[C@@H](NC(=O)c4ccc(Cl)s4)C3)c12 [Example 538, (R)-N-(1-(4-amino-7-(6-(difluoromethoxy)pyridin-3-yl)pyrrolo[2,1-f][1,2,4]triazin-5-yl)piperidin-3-yl)-5-chlorothiophene-2-carboxamide]
The IC50 of the first is 2.5-fold lower: 8 nM for the first, 20 nM for the second.

Compared with `Nc1ncnn2c(-c3ccc(=O)[nH]c3)cc(N3CCC[C@@H](NC(=O)c4ccc(Cl)s4)C3)c12` [Example 536, (R)-N-(1-(4-amino-7-(6-oxo-1,6-dihydropyridin-3-yl)pyrrolo[2,1-f][1,2,4]triazin-5-yl)piperidin-3-yl)-5-chlorothiophene-2-carboxamide], `Nc1ncnn2c(-c3ccc(C=O)cc3)cc(N3CCC[C@@H](NC(=O)c4ccc(Cl)s4)C3)c12` [Example 539] is 18-fold lower in IC50: 7 nM for the first, 0.4 nM for the second. The second is the more potent here.

Work on `CC(=O)N1CC=C(c2cc(N3CCC[C@@H](NC(=O)c4ccc(-c5ccnc(C(F)F)c5)s4)C3)c3c(N)ncnn23)C1` [Example 541, (R)—N-(1-(7-(1-acetyl-2,5-dihydro-1H-pyrrol-3-yl)-4-aminopyrrolo[2,1-f][1,2,4]triazin-5-yl)piperidin-3-yl)-5-(2-(difluoromethyl)pyridin-4-yl)thiophene-2-carboxamide] yielded an IC50 of 5 nM.
